Numbers after ± are expanded uncertainties.
Experiment: excess molar enthalpy (molar enthalpy of mixing); xn = mol fraction of the nth substance listed
Conditions: 101.3 kPa, Liquid, Flow calorimetry

CC(=O)c1ccccc1 [acetophenone] + C1CCCCC1
excess molar enthalpy [kcal/mol]
Conditions | 298.2 K | 313.2 K | 328.2 K | 338.2 K | 348.2 K
x1 = 0.1004 | 0.18 ± 0.00406 | 0.19 ± 0.0043 | 0.193 ± 0.0043 | 0.195 ± 0.0043 | 0.196 ± 0.0043
x1 = 0.1999 | 0.264 ± 0.00574 | 0.285 ± 0.00621 | 0.295 ± 0.00645 | 0.302 ± 0.00645 | 0.304 ± 0.00645
x1 = 0.2999 | 0.305 ± 0.00669 | 0.336 ± 0.00717 | 0.353 ± 0.00765 | 0.362 ± 0.00789 | 0.364 ± 0.00789
x1 = 0.3499 | 0.317 ± 0.00693 | 0.35 ± 0.00741 | 0.368 ± 0.00789 | 0.377 ± 0.00813 | 0.379 ± 0.00813
x1 = 0.4002 | 0.323 ± 0.00693 | 0.356 ± 0.00765 | 0.374 ± 0.00813 | 0.385 ± 0.00813 | 0.388 ± 0.00837
x1 = 0.4497 | 0.323 ± 0.00693 | 0.357 ± 0.00765 | 0.375 ± 0.00813 | 0.386 ± 0.00837 | 0.387 ± 0.00837
x1 = 0.4996 | 0.32 ± 0.00693 | 0.352 ± 0.00765 | 0.37 ± 0.00789 | 0.378 ± 0.00813 | 0.382 ± 0.00813
x1 = 0.5498 | 0.312 ± 0.00669 | 0.343 ± 0.00741 | 0.359 ± 0.00765 | 0.367 ± 0.00789 | 0.371 ± 0.00789
x1 = 0.6005 | 0.299 ± 0.00645 | 0.327 ± 0.00693 | 0.341 ± 0.00741 | 0.349 ± 0.00741 | 0.353 ± 0.00765
x1 = 0.6503 | 0.282 ± 0.00598 | 0.307 ± 0.00669 | 0.319 ± 0.00693 | 0.326 ± 0.00693 | 0.329 ± 0.00717
x1 = 0.7004 | 0.261 ± 0.00574 | 0.28 ± 0.00598 | 0.289 ± 0.00621 | 0.296 ± 0.00645 | 0.299 ± 0.00645
x1 = 0.8005 | 0.2 ± 0.0043 | 0.209 ± 0.00454 | 0.213 ± 0.00454 | 0.218 ± 0.00478 | 0.221 ± 0.00478
x1 = 0.8995 | 0.114 ± 0.00263 | 0.117 ± 0.00263 | 0.118 ± 0.00263 | 0.121 ± 0.00287 | 0.122 ± 0.00287

CC(=O)c1ccccc1 [acetophenone] + CC(C)CO
excess molar enthalpy [kcal/mol]
Conditions | 298.2 K | 313.2 K | 328.2 K | 338.2 K | 348.2 K
x1 = 0.1005 | 0.166 ± 0.00382 | 0.192 ± 0.0043 | 0.219 ± 0.00502 | 0.223 ± 0.00502 | 0.225 ± 0.00502
x1 = 0.201 | 0.263 ± 0.00574 | 0.312 ± 0.00669 | 0.356 ± 0.00765 | 0.367 ± 0.00789 | 0.369 ± 0.00789
x1 = 0.301 | 0.327 ± 0.00717 | 0.39 ± 0.00837 | 0.449 ± 0.00956 | 0.46 ± 0.0098 | 0.462 ± 0.0098
x1 = 0.3512 | 0.346 ± 0.00741 | 0.414 ± 0.00884 | 0.476 ± 0.0103 | 0.488 ± 0.0105 | 0.491 ± 0.0105
x1 = 0.4014 | 0.361 ± 0.00789 | 0.432 ± 0.00932 | 0.494 ± 0.0105 | 0.507 ± 0.0108 | 0.509 ± 0.0108
x1 = 0.4516 | 0.371 ± 0.00789 | 0.443 ± 0.00956 | 0.504 ± 0.0108 | 0.516 ± 0.011 | 0.519 ± 0.011
x1 = 0.5017 | 0.375 ± 0.00813 | 0.446 ± 0.00956 | 0.505 ± 0.0108 | 0.516 ± 0.011 | 0.52 ± 0.011
x1 = 0.5518 | 0.373 ± 0.00813 | 0.443 ± 0.00956 | 0.498 ± 0.0105 | 0.508 ± 0.0108 | 0.51 ± 0.0108
x1 = 0.6016 | 0.366 ± 0.00789 | 0.432 ± 0.00932 | 0.482 ± 0.0103 | 0.489 ± 0.0105 | 0.492 ± 0.0105
x1 = 0.6513 | 0.354 ± 0.00765 | 0.415 ± 0.00884 | 0.456 ± 0.0098 | 0.463 ± 0.0098 | 0.467 ± 0.01
x1 = 0.7008 | 0.335 ± 0.00717 | 0.389 ± 0.00837 | 0.423 ± 0.00908 | 0.426 ± 0.00908 | 0.428 ± 0.00908
x1 = 0.8016 | 0.271 ± 0.00598 | 0.305 ± 0.00669 | 0.324 ± 0.00693 | 0.325 ± 0.00717 | 0.329 ± 0.00717
x1 = 0.901 | 0.164 ± 0.00359 | 0.177 ± 0.00406 | 0.183 ± 0.0043 | 0.185 ± 0.0043 | 0.187 ± 0.0043

CC(=O)c1ccccc1 [acetophenone] + CCCCCC
excess molar enthalpy [kcal/mol]
Conditions | 298.2 K | 313.2 K | 328.2 K
x1 = 0.0997 | 0.169 ± 0.00382 | 0.173 ± 0.00382 | 0.175 ± 0.00382
x1 = 0.2 | 0.263 ± 0.00574 | 0.277 ± 0.00598 | 0.285 ± 0.00621
x1 = 0.2994 | 0.306 ± 0.00669 | 0.329 ± 0.00693 | 0.342 ± 0.00741
x1 = 0.3503 | 0.317 ± 0.00669 | 0.343 ± 0.00741 | 0.357 ± 0.00765
x1 = 0.4006 | 0.321 ± 0.00693 | 0.349 ± 0.00741 | 0.365 ± 0.00789
x1 = 0.4503 | 0.321 ± 0.00693 | 0.35 ± 0.00741 | 0.367 ± 0.00789
x1 = 0.4995 | 0.316 ± 0.00669 | 0.346 ± 0.00741 | 0.363 ± 0.00789
x1 = 0.5494 | 0.308 ± 0.00669 | 0.336 ± 0.00717 | 0.353 ± 0.00765
x1 = 0.5999 | 0.295 ± 0.00621 | 0.319 ± 0.00693 | 0.337 ± 0.00717
x1 = 0.6499 | 0.278 ± 0.00598 | 0.293 ± 0.00621 | 0.313 ± 0.00669
x1 = 0.7005 | 0.257 ± 0.0055 | 0.265 ± 0.00574 | 0.277 ± 0.00598
x1 = 0.8 | 0.2 ± 0.0043 | 0.203 ± 0.0043 | 0.207 ± 0.00454
x1 = 0.8995 | 0.113 ± 0.00263 | 0.115 ± 0.00263 | 0.117 ± 0.00263

CC(=O)c1ccccc1 [acetophenone] + CCCCCCC
excess molar enthalpy [kcal/mol]
Conditions | 298.2 K | 313.2 K | 328.2 K | 338.2 K | 348.2 K
x1 = 0.0999 | 0.173 ± 0.00382 | 0.177 ± 0.00406 | 0.183 ± 0.00406 | 0.184 ± 0.00406 | 0.184 ± 0.00406
x1 = 0.2002 | 0.271 ± 0.00598 | 0.285 ± 0.00621 | 0.298 ± 0.00645 | 0.301 ± 0.00645 | 0.302 ± 0.00645
x1 = 0.3005 | 0.313 ± 0.00669 | 0.341 ± 0.00741 | 0.361 ± 0.00765 | 0.369 ± 0.00789 | 0.369 ± 0.00789
x1 = 0.3498 | 0.323 ± 0.00693 | 0.354 ± 0.00765 | 0.378 ± 0.00813 | 0.388 ± 0.00837 | 0.389 ± 0.00837
x1 = 0.4007 | 0.326 ± 0.00693 | 0.362 ± 0.00765 | 0.388 ± 0.00837 | 0.398 ± 0.0086 | 0.4 ± 0.0086
x1 = 0.4504 | 0.327 ± 0.00693 | 0.362 ± 0.00765 | 0.391 ± 0.00837 | 0.402 ± 0.0086 | 0.404 ± 0.0086
x1 = 0.5003 | 0.322 ± 0.00693 | 0.358 ± 0.00765 | 0.387 ± 0.00837 | 0.399 ± 0.0086 | 0.401 ± 0.0086
x1 = 0.5504 | 0.313 ± 0.00669 | 0.348 ± 0.00741 | 0.378 ± 0.00813 | 0.39 ± 0.00837 | 0.39 ± 0.00837
x1 = 0.6006 | 0.301 ± 0.00645 | 0.334 ± 0.00717 | 0.362 ± 0.00789 | 0.373 ± 0.00789 | 0.374 ± 0.00813
x1 = 0.6496 | 0.285 ± 0.00621 | 0.316 ± 0.00669 | 0.342 ± 0.00741 | 0.352 ± 0.00765 | 0.354 ± 0.00765
x1 = 0.6998 | 0.264 ± 0.00574 | 0.291 ± 0.00621 | 0.315 ± 0.00669 | 0.323 ± 0.00693 | 0.326 ± 0.00693
x1 = 0.8001 | 0.208 ± 0.00454 | 0.224 ± 0.00502 | 0.241 ± 0.00526 | 0.245 ± 0.00526 | 0.246 ± 0.00526
x1 = 0.8999 | 0.121 ± 0.00287 | 0.125 ± 0.00287 | 0.135 ± 0.00311 | 0.136 ± 0.00311 | 0.138 ± 0.00311
